Results: patent US20060069132A1, “Azolecarboxamide herbicides” (priority 2004, published 2006)

Assays:
[1] = tested on: barnyardgrass; assay: Test B pre-/postemergence herbicide test; assay type: in vivo, Echinochloa crus-galli; conditions: for Plant response rating (0 to 100 scale), Barnyardgrass: 0 is no effect, 100 is complete control, preemergence; for Barnyardgrass plant response rating: Postemergence, scale 0 (no effect) to 100 (complete control)
Procedure, shortened: (§1)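 Response was scored visually 13 to 15 days after treatment against untreated greenhouse controls, 0 meaning no effect and 100 complete control. Formulations (solvent mixture plus surfactant) went onto soil after planting, onto foliage of 1- to 4-leaf plants, and onto 2-leaf plants in a flooded paddy set including rice and barnyardgrass.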

[2] = tested on: Surinam grass; assay: Test B pre-/postemergence herbicide test; assay type: in vivo, Urochloa decumbens; conditions: for Plant response rating (0 to 100 scale), Surinam Grass: 0 is no effect, 100 is complete control, preemergence
Procedure, shortened: (§2)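 Flooded paddy rice and barnyardgrass were treated at the 2-leaf stage; upland plantings received compound either on sown seed or on 1- to 4-leaf seedlings. All were kept 13–15 days in a greenhouse and scored visually, 0–100, relative to untreated plants.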

[3] = tested on: cocklebur; assay: Test B pre-/postemergence herbicide test; assay type: in vivo, Xanthium strumarium; conditions: for Plant response rating (0 to 100 scale), Cocklebur: 0 is no effect, 100 is complete control, preemergence
Procedure, shortened: as §1

[4] = tested on: corn; assay: Test B pre-/postemergence herbicide test; assay type: in vivo, Zea mays; conditions: for Plant response rating (0 to 100 scale), Corn: 0 is no effect, 100 is complete control, preemergence
Procedure, shortened: as §2

[5] = tested on: large crabgrass; assay: Test B pre-/postemergence herbicide test; assay type: in vivo, Digitaria sanguinalis; conditions: for Plant response rating (0 to 100 scale), Crabgrass, Large: 0 is no effect, 100 is complete control, preemergence
Procedure, shortened: as §2

[6] = tested on: giant foxtail; assay: Test B pre-/postemergence herbicide test; assay type: in vivo, Setaria faberi; conditions: for Plant response rating (0 to 100 scale), Foxtail, Giant: 0 is no effect, 100 is complete control, preemergence
Procedure, shortened: as §2

[7] = tested on: lambsquarters; assay: Test B pre-/postemergence herbicide test; assay type: in vivo, Chenopodium album; conditions: for Plant response rating (0 to 100 scale), Lambsquarters: 0 is no effect, 100 is complete control, preemergence
Procedure, shortened: as §2

[8] = tested on: morningglory; assay: Test B pre-/postemergence herbicide test; assay type: in vivo, Ipomoea coccinea; conditions: for Plant response rating (0 to 100 scale), Morningglory: 0 is no effect, 100 is complete control, preemergence
Procedure, shortened: as §1

[9] = tested on: pigweed; assay: Test B pre-/postemergence herbicide test; assay type: in vivo, Amaranthus retroflexus; conditions: for Plant response rating (0 to 100 scale), Pigweed: 0 is no effect, 100 is complete control, preemergence
Procedure, shortened: as §2

[10] = tested on: velvetleaf; assay: Test B pre-/postemergence herbicide test; assay type: in vivo, Abutilon theophrasti; conditions: for Plant response rating (0 to 100 scale), Velvetleaf: 0 is no effect, 100 is complete control, preemergence
Procedure, shortened: as §2

[11] = tested on: blackgrass; assay: Test B postemergence herbicide test; assay type: in vivo, Alopecurus myosuroides
Procedure, shortened: (§3)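 Visual control ratings, 0–100 versus untreated controls, taken after 13 to 15 days in the greenhouse. Blackgrass received a postemergence spray at the 1- to 4-leaf stage (2–18 cm); ducksalad, umbrella sedge and barnyardgrass were flooded-paddy treated at 2 leaves.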

[12] = tested on: wild oat; assay: Test B postemergence herbicide test; assay type: in vivo, Avena fatua
Procedure, shortened: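 Visual ratings, 0 (no effect) to 100 (complete control), made versus controls after 13–15 d greenhouse. Paddy plants treated at 2-leaf stage; postemergence plants at 1- to 4-leaf stage, 2–18 cm tall.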

[13] = tested on: rice; assay: Test B flooded paddy test; assay type: in vivo, Oryza sativa; conditions: 1000 g ai/ha, scale 0 to 100 (0 no effect, 100 complete control)
Procedure, shortened: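 After treating 2-leaf paddy plants or 2–18 cm postemergence plants (1 to 4 leaves) with formulated chemical, researchers kept them in a greenhouse for 13–15 days. Effects were judged visually versus controls: 0 indicates none, 100 total control.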

[14] = tested on: small flower umbrella sedge; assay: Test B flooded paddy test; assay type: in vivo, Cyperus difformis; conditions: 1000 g ai/ha, scale 0 to 100 (0 no effect, 100 complete control)
Procedure, shortened: as §3

[15] = tested on: ducksalad; assay: Test B flooded paddy test; assay type: in vivo, Heteranthera limosa; conditions: 1000 g ai/ha, scale 0 to 100 (0 no effect, 100 complete control)
Procedure, shortened: as §3

[16] = Postemergence, 500 g ai/ha, scale 0 (no effect) to 100 (complete control)
[17] = postemergence, 125 g ai/ha, scale 0 to 100

Structure (SMILES)	Plant response rating (0 to 100 scale), Barnyardgrass ([1]; 125 g ai/ha)	Barnyardgrass plant response rating ([1]; 125 g ai/ha)	Barnyardgrass plant response rating ([1]; 500 g ai/ha)	Plant response rating (0 to 100 scale), Surinam Grass ([2]; 125 g ai/ha)	Surinam Grass plant response rating [2, 16]	Surinam Grass plant response rating [2, 17]	Plant response rating (0 to 100 scale), Cocklebur ([3]; 125 g ai/ha)	Cocklebur plant response rating [3, 16]	Cocklebur plant response rating [3, 17]	Plant response rating (0 to 100 scale), Corn ([4]; 125 g ai/ha)	Corn plant response rating [4, 16]	Corn plant response rating [4, 17]	Plant response rating (0 to 100 scale), Crabgrass, Large ([5]; 125 g ai/ha)	Crabgrass, Large plant response rating [5, 16]	Crabgrass, Large plant response rating [5, 17]	Plant response rating (0 to 100 scale), Foxtail, Giant ([6]; 125 g ai/ha)	Foxtail, Giant plant response rating [6, 16]	Foxtail, Giant plant response rating [6, 17]	Plant response rating (0 to 100 scale), Lambsquarters ([7]; 125 g ai/ha)	Lambsquarters plant response rating [7, 16]	other results
Cc1nn(C(C)(C)C)nc1C(=O)Nc1cccc(C(=S)N(C)C)c1 [Compound 419]	100	20	50	90	30	20	30	40	20	70	30	20	100	40	30	90	30	30	100	90	Lambsquarters plant response rating [7, 17]: 70; Plant response rating (0 to 100 scale), Morningglory ([8]; 125 g ai/ha): 50; Morningglory plant response rating [8, 16]: 90; Morningglory plant response rating [8, 17]: 80; Plant response rating (0 to 100 scale), Pigweed ([9]; 125 g ai/ha): 100; Pigweed plant response rating [9, 16]: 80; Pigweed plant response rating [9, 17]: 60; Plant response rating (0 to 100 scale), Velvetleaf ([10]; 125 g ai/ha): 70; Velvetleaf plant response rating [10, 16]: 50; Velvetleaf plant response rating [10, 17]: 20; Blackgrass plant response rating [11, 16]: 30; Blackgrass plant response rating [11, 17]: 10; Oat, Wild plant response rating [12, 16]: 20; Oat, Wild plant response rating [12, 17]: 0; Rice plant response rating [13]: 80; Sedge, Umbrella plant response rating [14]: 80; Ducksalad plant response rating [15]: 70
CCNC(=S)c1cccc(NC(=O)c2nn(C(C)(C)C)nc2C)c1 [Compound 420]	90	20	50	70	30	20	0	40	10	70	20	20	100	40	30	80	30	20	100	90	Lambsquarters plant response rating [7, 17]: 70; Plant response rating (0 to 100 scale), Morningglory ([8]; 125 g ai/ha): 50; Morningglory plant response rating [8, 16]: 90; Morningglory plant response rating [8, 17]: 80; Plant response rating (0 to 100 scale), Pigweed ([9]; 125 g ai/ha): 100; Pigweed plant response rating [9, 16]: 70; Pigweed plant response rating [9, 17]: 60; Plant response rating (0 to 100 scale), Velvetleaf ([10]; 125 g ai/ha): 50; Velvetleaf plant response rating [10, 16]: 30; Velvetleaf plant response rating [10, 17]: 20; Blackgrass plant response rating [11, 16]: 40; Blackgrass plant response rating [11, 17]: 10; Oat, Wild plant response rating [12, 16]: 30; Oat, Wild plant response rating [12, 17]: 20; Rice plant response rating [13]: 60; Sedge, Umbrella plant response rating [14]: 70; Ducksalad plant response rating [15]: 80
